Results on 34 substances are retold here after publication PMC8198792, “Prediction of Anticancer Peptides with High Efficacy and Low Toxicity by Hybrid Model Based on 3D Structure of Peptides” (International Journal of Molecular Sciences, 2021).

Like-named read-outs stand apart in the source and are kept apart here.

The test system of series [1] is erythrocytes. The note with it: cited from earlier work. An excerpt: Supplement ijms-22-05630-s001.zip/Hemloytic Peptides(seguence).xlsx, sheet "HD1" | column: Activity || Supplement ijms-22-05630-s001.zip/Hemloytic Peptides(seguence).xlsx, sheet "HD2" | column: Activity || Supplement ijms-22-05630-s001.zip/Hemloytic Peptides(seguence).xlsx, sheet "HD3" | column: Activity

The test system of series [2] is many types of cells, including non-cancer cells. The note with it: toxic peptides dataset TD2; class label 1 (toxic, positive set) or 0 (non-toxic AMP, negative set); ref SATPdb; cited from earlier work.
Series [3] has as its system cancer cell lines. Also on record: method as in 6 sources, ref CancerPPD [45] and SATPdb ||| ref CancerPPD/SATPdb ||| ref CancerPPD, SATPdb, Swissprot (PDB) ||| ref CancerPPD/SATPdb/Swissprot(PDB) ||| ref CancerPPD / SATPdb ||| ... The note with it: cited from earlier work. From the text: Supplement ijms-22-05630-s001.zip/ACPs(seguence).xlsx, sheet "D1" | column: Activity || Supplement ijms-22-05630-s001.zip/ACPs(seguence).xlsx, sheet "D2" | column: Activity || Supplement ijms-22-05630-s001.zip/ACPs(seguence).xlsx, sheet "D3" | column: Activity || (+ 2 further places)

Series [4] relates to 2% sheep red blood cells (SRBC). The experiment in a line: Hemolysis assay. The note with it: Triton X-100 0.1% (w/v), 2% SRBC, 37 °C, 1 h, absorbance 540 nm; printed once per peptide line. The series is classed as cell-based. The protocol: The 2% sheep red blood cells (SRBC) were purchased from Nanjing Senbeijia Biological Technology Co., Ltd (Nangjing, China). A total of 4 mL of 2% SRBC was taken, rinsed twice with 4 mL of PBS by centrifugation for 5 min at 3000 rpm and the precipitates were resuspended in 4 mL of PBS. We added 100 μL of 2% SRBC to each well of the 96-well plate and then added 100 μL peptide solutions of different concentrations (2, 4, 8, 16, 32, 64, 128 and 256 μM) in triplicate at 37 °C for 1 h. 100 μL of PBS buffer and 100 uL of Triton X-100 0.1% (w/v) were mixed with SRBC as negative and positive controls, respectively. All samples were centrifuged at 3000 rpm for 5 min, 100 μL supernatant was collected and transferred to a new 96-well plate, and its absorbance was measured at 540 nm. The calculation formula of hemolysis rate is as follows. (5) % Hemolysis=absorbancesample-absorbancenegative/absorbancepositive-absorbancenegative×100

Setting [5] is: ACPs dataset D3 (sheet "D3"), label 1 = ACP, 0 = non-ACP, ref CancerPPD/SATPdb.
Where [6] appears, read: ACPs dataset D4 (sheet "D4"), label 1 = ACP, 0 = non-ACP, ref CancerPPD / SATPdb.
[7] abbreviates: ACPs dataset D5, sheet "D5", label 1 = ACP, 0 = non-ACP, ref CancerPPD [45] and SATPdb.
Setting [8] is: ACPs dataset D3 (supplement sheet "D3"), 1 = ACP, 0 = non-ACP, ref CancerPPD [45] and SATPdb.
Setting [9] is: Hemolytic peptides dataset HD2, label 1 = hemolytic, 0 = non-hemolytic, ref Hemolytik/SATPdb.
The mark [10] stands for this setting: hemolytic peptides dataset HD3, 1 = hemolytic (positive set), 0 = non-hemolytic (negative set), labels taken from databases, ref Hemolytik/SATPdb.

Consider GLLGPLLKIAAKVGSNLL [satpdb10126], for which the Activity in series [1] and in series [2] was 1 throughout.

Regarding FFGWLIRGAIHAGKAIHGLIHRRRH [satpdb10145], the Activity is reported as 0 in series [3] (ACPs dataset D1, 1 = ACP (positive), 0 = non-ACP (negative), label taken from databases, ref CancerPPD [45] and SATPdb); 0 in series [3] (ACPs dataset D4 (sheet "D4"), label 1 = ACP (CancerPPD ID), 0 = non-ACP (non-anticancer AMP, SATPdb ID), ref CancerPPD [45] and SATPdb); 1 in series [1]; 1 in series [2].

In the case of FLPFLAKILTGVL [satpdb14646], the Activity in series [3] (setting [5]), in series [3] (setting [6]), in series [3] (setting [7]) and in series [2] was 0 each time.

For the substance LLSLVPHAINAVSAIAKHF [satpdb10338], the Activity in series [3] (setting [8]), in series [3] (setting [6]), in series [3] (setting [7]) and in series [2] was 0 in each case.

In the case of WRSLGRTLLRLSHALKPLARRSGW [satpdb10596], the Activity in series [3] (setting [8]), in series [3] (setting [6]), in series [3] (setting [7]) and in series [2] was 0 in each case.

As for FVGAIAAALPHVISAIKNAL [satpdb12079], the Activity in series [3] (setting [5]) is 0; in series [3] (setting [6]), 0; in series [3] (setting [7]), 0; in series [1] (setting [9]), 1; in series [1] (setting [10]), 1; in series [2], 1.

Take GLADFLNKAVGKVVDFVKS [satpdb10833]: the Activity in series [3] (setting [8]), in series [3] (setting [6]), in series [3] (setting [7]) and in series [2] was 0 throughout.

Turning to VIPIVSGLLSSLL [satpdb12918], the Activity in series [3] (setting [5]), in series [3] (setting [6]), in series [3] (setting [7]) and in series [2] was 0 throughout.

On to “GMFTNMLKGIGKLAGQAALGAVKTLA [satpdb11616]”, for which the Activity in series [3] (setting [8]), in series [3] (setting [6]), in series [3] (setting [7]) and in series [2] was 0 throughout.

Consider “ILQKAVLDCLKAAGSSLSKAAITAIYNKIT [satpdb12333]”, for which the Activity in series [3] (setting [5]), in series [3] (setting [6]), in series [3] (setting [7]) and in series [2] was 0 in each case.

For the substance GLWEKIKEKANELVSGIVEGVK [satpdb12905], the Activity in series [3] (setting [5]), in series [3] (setting [6]), in series [3] (setting [7]) and in series [2] was 0 in each case.

Regarding “AMWKDVLKKIGTVALHAGKAALGAVADTISQ [satpdb14434]”, the Activity in series [3] (setting [5]), in series [3] (setting [6]), in series [3] (setting [7]) and in series [2] was 0 each time.

Turning to “RADTQTYQPYNKDWIKEKIYVLLRRQAQQAGK [satpdb14189]”, the Activity in series [3] (setting [5]), in series [3] (setting [6]), in series [3] (setting [7]) and in series [2] was 0 throughout.

As to AIGSILGALAKGLPTLISWIKNR [satpdb14614], the Activity in series [3] (setting [5]) is 0; in series [3] (setting [6]), 0; in series [3] (setting [7]), 0; in series [2], 1.

For FLPLLASLFSGLF [satpdb11101], the Activity in series [3] (setting [8]), in series [3] (setting [6]), in series [3] (setting [7]) and in series [2] was 0 each time.

As to “KWKSFIKKLTSAAKKVVTTAKPLISS [satpdb10912]”, the Activity in series [3] (setting [8]), in series [3] (setting [6]), in series [3] (setting [7]) and in series [2] was 0 throughout.

For GFGSVLGKALKFGANLL [satpdb10971], the Activity in series [3] (setting [8]), in series [3] (setting [6]), in series [3] (setting [7]) and in series [2] was 0 throughout.

As to FASLLGKALKALAKQ [satpdb10678], the Activity in series [3] (setting [8]), in series [3] (setting [6]), in series [3] (setting [7]) and in series [2] was 0 in each case.

Consider FLSTLWNAAKSIF [satpdb12345], for which the Activity is 0 in series [3] (setting [5]), 0 in series [3] (setting [6]), 0 in series [3] (setting [7]) and 1 in series [2].

In the case of “GKVLDKFGKIVGKVLKQLKKVSAVAKV [satpdb11239]”, the Activity is listed as 0 in series [3] (setting [8]), 0 in series [3] (setting [6]), 0 in series [3] (setting [7]) and 1 in series [2].

For RGGRLCYCRRRFCICV [satpdb14720], the Activity in series [3] (setting [5]), in series [3] (setting [6]), in series [3] (setting [7]) and in series [2] was 0 in each case.

Take GILDVAKTLVGKLRNVLGI [satpdb10523]: the Activity in series [3] (setting [8]), in series [3] (setting [6]), in series [3] (setting [7]) and in series [2] was 0 in each case.

Regarding “KFGKIVGKVLKQLKKVSAVAKVAMKKG [satpdb11425]”, the Activity in series [3] (setting [8]) was 0; in series [3] (setting [6]), 0; in series [3] (setting [7]) it was 0; in series [2], 1.

IDWKKLLDAAKQIL [satpdb24876]: the figures for the Activity in series [1] (setting [9]), in series [1] (setting [10]) and in series [2] were 0, 0 and 1, respectively.

As to ILGPVIKTIGGVIGGLLKNL [satpdb10308], the Activity in series [3] (setting [8]) is recorded as 0; in series [3] (setting [6]), 0; in series [3] (setting [7]), 0; in series [2] it was 1.

As for SILPTIVSFLTKFL [satpdb10195], the Activity in series [3] (setting [8]), in series [3] (setting [6]), in series [3] (setting [7]) and in series [2] was 0 in each case.

With “GVWDWLKKTAKNVWNSDIVKQLKGKAINAAKNYVAEKIGATPS [satpdb11887]”, the Activity in series [3] (setting [8]), in series [3] (setting [6]), in series [3] (setting [7]) and in series [2] was 0 in each case.

Take ILGAILPLVSGLLSNKL [satpdb12884]: the Activity in series [3] (setting [5]), in series [3] (setting [6]), in series [3] (setting [7]) and in series [2] was 0 throughout.

Consider VOLFPWWNQY [satpdb13995], for which the Activity in series [3] (setting [5]), in series [3] (setting [6]), in series [3] (setting [7]) and in series [2] was 0 throughout.

With VKLfPVKLfP [satpdb12197], the Activity was 0 in series [3] (setting [5]), 0 in series [3] (setting [6]), 0 in series [3] (setting [7]) and 1 in series [2].

For the substance GMASKAGSVLGKVAKVALKAAL [satpdb13618], the Activity in series [3] (setting [5]), in series [3] (setting [6]), in series [3] (setting [7]) and in series [2] was 0 each time.

As for Triton X-100 [reference compound], the “Hemolytic effect on 2% sheep erythrocytes, Positive Control (Triton X-100 (0.1%))” value in series [4] was “+ (The “+” symbol indicates that the hemolysis rate exceeds 10% when peptides concentration reaches 100 μM)”.

Take LSPNLLKSLL [satpdb13883]: the Activity in series [3] (setting [5]), in series [3] (setting [6]), in series [3] (setting [7]) and in series [2] was 0 throughout.

Turning to GRLQAFLAKMKEIAAQTL [satpdb13649], the Activity in series [3] (setting [5]), in series [3] (setting [6]), in series [3] (setting [7]) and in series [2] was 0 throughout.
